Test results taken from publication PMC10327353 (Breast Cancer Research : BCR, 2023).

Test: Phase 1 study: safety and tolerability
Assay type: in vivo
Protocol: The maximum tolerated dose (MTD) of DZD1516 was defined based on safety data and the Bayesian optimal interval (BOIN) design (Additional file 1). The definition of DLT is provided in Additional file 1.
The AE grading was assessed according to the NCI-Common Terminology Criteria for Adverse Events (CTCAE) (version 5.0) and was monitored until 28 days after the last dose.
Eligible patients received single oral dosing of DZD1516 on Cycle 0 Day 1 (C0D1), followed by a 7-day washout. Twice daily oral dosing (bid) of DZD1516 was commenced from C1D1 in a continuous 21-day cycle until disease progression, unacceptable toxicity, or withdrawal of consent. All doses were taken under fed conditions (within 30 minutes after a meal).
Planned dosing consisted of 25, 50, 100, 200, 300, and 400 mg. Each dose escalation cohort will comprise a minimum of three and a maximum of six evaluable patients (except only one patient in the starting dose cohort). The maximum tolerated dose of DZD1516 was defined according to safety data and the Bayesian optimal interval (BOIN) design. Dose escalation/de-escalation rule with target toxicity rate for the MTD is 0.30 with interval of (0.20, 0.33).
DLTs were any adverse event (AE) not clearly attributable to the patient’s disease, including ≥ grade 4 hematological toxicities present for ≥ 4 days, grade 3 thrombocytopenia with bleeding, or grade 4 thrombocytopenia lasting for > 5 days, ≥ grade 3 non-hematological toxicities that is dose-limiting in the judgment of the investigators. Any other toxicity that is greater than that at baseline, is clinically significant or unacceptable, and is judged to be a DLT by the SRC. Exceptions included alopecia of any grade and isolated grade 3 laboratory change without clinical sequelae or clinical significance.
Safety evaluations were conducted at screening, on Day 1, 8, and 15 of Cycle 1, on Day 1 of each subsequent treatment cycle, at the end-of-treatment visit, and clinically indicated. Safety assessments included clinical laboratory measurements (hematology, chemistry, coagulation, and urinalysis), electrocardiogram (ECG), Echocardiogram/MUGA scan, ECOG performance status, vital signs, and physical examinations.

COc1cc(O[C@H]2CCN(C)CC2(F)F)c2c(Nc3ccc(Oc4ccn5ncnc5c4)c(C)c3)ncnc2c1 [DZD1516]
Alanine aminotransferase increased, Any Grade (25 mg (N = 1)): 0 (0.0) n (%)
Alanine aminotransferase increased, ≥ Grade 3 (25 mg (N = 1)): 0 (0.0) n (%)
Anemia, Any Grade (25 mg (N = 1)): 0 (0.0) n (%)
Anemia, ≥ Grade 3 (25 mg (N = 1)): 0 (0.0) n (%)
Any TEAE: Grade 3 (25 mg (N = 1)): 0 (0.0) n (%)
Any TEAE: Leading to death (25 mg (N = 1)): 0 (0.0) n (%)
Any TEAE: Leading to dose reduction (25 mg (N = 1)): 0 (0.0) n (%)
Any TEAE: Leading to treatment discontinuation (25 mg (N = 1)): 0 (0.0) n (%)
Any TEAE: Leading to treatment interruption (25 mg (N = 1)): 0 (0.0) n (%)
Any TEAE: SAE (25 mg (N = 1)): 0 (0.0) n (%)
Aspartate aminotransferase increased, Any Grade (25 mg (N = 1)): 0 (0.0) n (%)
Aspartate aminotransferase increased, ≥ Grade 3 (25 mg (N = 1)): 0 (0.0) n (%)
Blood and lymphatic system disorders, Any Grade (25 mg (N = 1)): 0 (0.0) n (%)
Blood and lymphatic system disorders, ≥ Grade 3 (25 mg (N = 1)): 0 (0.0) n (%)
Blood bilirubin increased, Any Grade (25 mg (N = 1)): 1 (100.0) n (%)
Blood bilirubin increased, ≥ Grade 3 (25 mg (N = 1)): 0 (0.0) n (%)
Cardiac disorders, Any Grade (25 mg (N = 1)): 0 (0.0) n (%)
Cardiac disorders, ≥ Grade 3 (25 mg (N = 1)): 0 (0.0) n (%)
Constipation, Any Grade (25 mg (N = 1)): 0 (0.0) n (%)
Constipation, ≥ Grade 3 (25 mg (N = 1)): 0 (0.0) n (%)
Decreased appetite, Any Grade (25 mg (N = 1)): 0 (0.0) n (%)
Decreased appetite, ≥ Grade 3 (25 mg (N = 1)): 0 (0.0) n (%)
Dizziness, Any Grade (25 mg (N = 1)): 0 (0.0) n (%)
Dizziness, ≥ Grade 3 (25 mg (N = 1)): 0 (0.0) n (%)
Drug-related TEAE: Grade 3 (25 mg (N = 1)): 0 (0.0) n (%)
Drug-related TEAE: Leading to death (25 mg (N = 1)): 0 (0.0) n (%)
Drug-related TEAE: Leading to dose reduction (25 mg (N = 1)): 0 (0.0) n (%)
Drug-related TEAE: Leading to treatment discontinuation (25 mg (N = 1)): 0 (0.0) n (%)
Drug-related TEAE: Leading to treatment interruption (25 mg (N = 1)): 0 (0.0) n (%)
Drug-related TEAE: SAE (25 mg (N = 1)): 0 (0.0) n (%)
Fatigue, Any Grade (25 mg (N = 1)): 0 (0.0) n (%)
Fatigue, ≥ Grade 3 (25 mg (N = 1)): 0 (0.0) n (%)
Gastrointestinal disorders, Any Grade (25 mg (N = 1)): 0 (0.0) n (%)
Gastrointestinal disorders, ≥ Grade 3 (25 mg (N = 1)): 0 (0.0) n (%)
General disorders and administration site conditions, Any Grade (25 mg (N = 1)): 0 (0.0) n (%)
General disorders and administration site conditions, ≥ Grade 3 (25 mg (N = 1)): 0 (0.0) n (%)
Headache, Any Grade (25 mg (N = 1)): 0 (0.0) n (%)
Headache, ≥ Grade 3 (25 mg (N = 1)): 0 (0.0) n (%)
Hemoglobin decreased, Any Grade (25 mg (N = 1)): 0 (0.0) n (%)
Hemoglobin decreased, ≥ Grade 3 (25 mg (N = 1)): 0 (0.0) n (%)
Investigations, Any Grade (25 mg (N = 1)): 1 (100.0) n (%)
Investigations, ≥ Grade 3 (25 mg (N = 1)): 0 (0.0) n (%)
Lipase increased, Any Grade (25 mg (N = 1)): 0 (0.0) n (%)
Lipase increased, ≥ Grade 3 (25 mg (N = 1)): 0 (0.0) n (%)
Malaise, Any Grade (25 mg (N = 1)): 0 (0.0) n (%)
Malaise, ≥ Grade 3 (25 mg (N = 1)): 0 (0.0) n (%)
Metabolism and nutrition disorders, Any Grade (25 mg (N = 1)): 0 (0.0) n (%)
Metabolism and nutrition disorders, ≥ Grade 3 (25 mg (N = 1)): 0 (0.0) n (%)
Musculoskeletal and connective tissue disorders, Any Grade (25 mg (N = 1)): 0 (0.0) n (%)
Musculoskeletal and connective tissue disorders, ≥ Grade 3 (25 mg (N = 1)): 0 (0.0) n (%)
Nausea, Any Grade (25 mg (N = 1)): 0 (0.0) n (%)
Nausea, ≥ Grade 3 (25 mg (N = 1)): 0 (0.0) n (%)
Nervous system disorders, Any Grade (25 mg (N = 1)): 0 (0.0) n (%)
Nervous system disorders, ≥ Grade 3 (25 mg (N = 1)): 0 (0.0) n (%)
Participants with any TEAE, Any Grade (25 mg (N = 1)): 1 (100.0) n (%)
Participants with any TEAE, ≥ Grade 3 (25 mg (N = 1)): 0 (0.0) n (%)
Platelet count decreased, Any Grade (25 mg (N = 1)): 0 (0.0) n (%)
Platelet count decreased, ≥ Grade 3 (25 mg (N = 1)): 0 (0.0) n (%)
Proteinuria, Any Grade (25 mg (N = 1)): 0 (0.0) n (%)
Proteinuria, ≥ Grade 3 (25 mg (N = 1)): 0 (0.0) n (%)
Renal and urinary disorders, Any Grade (25 mg (N = 1)): 0 (0.0) n (%)
Renal and urinary disorders, ≥ Grade 3 (25 mg (N = 1)): 0 (0.0) n (%)
Subjects with any TEAE (25 mg (N = 1)): 1 (100.0) n (%)
Subjects with any drug-related TEAE (25 mg (N = 1)): 1 (100.0) n (%)
Vomiting, Any Grade (25 mg (N = 1)): 0 (0.0) n (%)
Vomiting, ≥ Grade 3 (25 mg (N = 1)): 0 (0.0) n (%)
White blood cell count decreased, Any Grade (25 mg (N = 1)): 0 (0.0) n (%)
White blood cell count decreased, ≥ Grade 3 (25 mg (N = 1)): 0 (0.0) n (%)
Alanine aminotransferase increased, Any Grade (50 mg (N = 4)): 1 (25.0) n (%)
Alanine aminotransferase increased, ≥ Grade 3 (50 mg (N = 4)): 0 (0.0) n (%)
Anemia, Any Grade (50 mg (N = 4)): 0 (0.0) n (%)
Anemia, ≥ Grade 3 (50 mg (N = 4)): 0 (0.0) n (%)
Any TEAE: Grade 3 (50 mg (N = 4)): 0 (0.0) n (%)
Any TEAE: Leading to death (50 mg (N = 4)): 0 (0.0) n (%)
Any TEAE: Leading to dose reduction (50 mg (N = 4)): 0 (0.0) n (%)
Any TEAE: Leading to treatment discontinuation (50 mg (N = 4)): 0 (0.0) n (%)
Any TEAE: Leading to treatment interruption (50 mg (N = 4)): 0 (0.0) n (%)
Any TEAE: SAE (50 mg (N = 4)): 0 (0.0) n (%)
Aspartate aminotransferase increased, Any Grade (50 mg (N = 4)): 1 (25.0) n (%)
Aspartate aminotransferase increased, ≥ Grade 3 (50 mg (N = 4)): 0 (0.0) n (%)
Blood and lymphatic system disorders, Any Grade (50 mg (N = 4)): 0 (0.0) n (%)
Blood and lymphatic system disorders, ≥ Grade 3 (50 mg (N = 4)): 0 (0.0) n (%)
Blood bilirubin increased, Any Grade (50 mg (N = 4)): 0 (0.0) n (%)
Blood bilirubin increased, ≥ Grade 3 (50 mg (N = 4)): 0 (0.0) n (%)
Cardiac disorders, Any Grade (50 mg (N = 4)): 0 (0.0) n (%)
Cardiac disorders, ≥ Grade 3 (50 mg (N = 4)): 0 (0.0) n (%)
Constipation, Any Grade (50 mg (N = 4)): 0 (0.0) n (%)
Constipation, ≥ Grade 3 (50 mg (N = 4)): 0 (0.0) n (%)
Decreased appetite, Any Grade (50 mg (N = 4)): 0 (0.0) n (%)
Decreased appetite, ≥ Grade 3 (50 mg (N = 4)): 0 (0.0) n (%)
Dizziness, Any Grade (50 mg (N = 4)): 0 (0.0) n (%)
Dizziness, ≥ Grade 3 (50 mg (N = 4)): 0 (0.0) n (%)
Drug-related TEAE: Grade 3 (50 mg (N = 4)): 0 (0.0) n (%)
Drug-related TEAE: Leading to death (50 mg (N = 4)): 0 (0.0) n (%)
Drug-related TEAE: Leading to dose reduction (50 mg (N = 4)): 0 (0.0) n (%)
Drug-related TEAE: Leading to treatment discontinuation (50 mg (N = 4)): 0 (0.0) n (%)
Drug-related TEAE: Leading to treatment interruption (50 mg (N = 4)): 0 (0.0) n (%)
Drug-related TEAE: SAE (50 mg (N = 4)): 0 (0.0) n (%)
Fatigue, Any Grade (50 mg (N = 4)): 0 (0.0) n (%)
Fatigue, ≥ Grade 3 (50 mg (N = 4)): 0 (0.0) n (%)
Gastrointestinal disorders, Any Grade (50 mg (N = 4)): 0 (0.0) n (%)
Gastrointestinal disorders, ≥ Grade 3 (50 mg (N = 4)): 0 (0.0) n (%)
General disorders and administration site conditions, Any Grade (50 mg (N = 4)): 0 (0.0) n (%)
General disorders and administration site conditions, ≥ Grade 3 (50 mg (N = 4)): 0 (0.0) n (%)
Headache, Any Grade (50 mg (N = 4)): 1 (25.0) n (%)
Headache, ≥ Grade 3 (50 mg (N = 4)): 0 (0.0) n (%)
Hemoglobin decreased, Any Grade (50 mg (N = 4)): 2 (50.0) n (%)
Hemoglobin decreased, ≥ Grade 3 (50 mg (N = 4)): 0 (0.0) n (%)
Investigations, Any Grade (50 mg (N = 4)): 3 (75.0) n (%)
Investigations, ≥ Grade 3 (50 mg (N = 4)): 0 (0.0) n (%)
Lipase increased, Any Grade (50 mg (N = 4)): 2 (50.0) n (%)
Lipase increased, ≥ Grade 3 (50 mg (N = 4)): 0 (0.0) n (%)
Malaise, Any Grade (50 mg (N = 4)): 0 (0.0) n (%)
Malaise, ≥ Grade 3 (50 mg (N = 4)): 0 (0.0) n (%)
Metabolism and nutrition disorders, Any Grade (50 mg (N = 4)): 1 (25.0) n (%)
Metabolism and nutrition disorders, ≥ Grade 3 (50 mg (N = 4)): 0 (0.0) n (%)
Musculoskeletal and connective tissue disorders, Any Grade (50 mg (N = 4)): 1 (25.0) n (%)
Musculoskeletal and connective tissue disorders, ≥ Grade 3 (50 mg (N = 4)): 0 (0.0) n (%)
Nausea, Any Grade (50 mg (N = 4)): 0 (0.0) n (%)
Nausea, ≥ Grade 3 (50 mg (N = 4)): 0 (0.0) n (%)
